Laboratory results as given in patent US11612652B2, “Lipids as synthetic vectors to enhance antigen processing and presentation ex-vivo in dendritic cell therapy” (PDS Biotechnology Corporation, priority 2015, dated 2023).

What was measured:
TC-1 tumors = experiment: Established TC-1 tumor model: tumor microenvironment, tumor volume, ELISPOT; format: in vivo, C57 mice; conditions: Day 19 flow cytometry
Description: C57 mice were divided into the following groups of 8 mice per group: R-DOTAP+HPV16 E7 peptide KF18 ([…]) (SEQ ID NO: 4) , GM-CSF+HPV16 E7 peptide KF18, R-DOTAP, GM-C SF, HPV16 E7 peptide KF18, untreated. 1×10^5 TC-1 tumor cells were injected into the flank of the mice on day 0. The various formulations were administered on Days 12 and 19 after tumor implantation. On day 19 4-5 mice per group were sacrificed and a number of evaluations performed to evaluate the immunology of the tumor microenvironment.
RF9 specific dextramer staining and flow cytometry were utilized to quantify the number of HPV-specific CD8+ T-cells that had infiltrated into the tumor micro-environment. The study quantified the number of CD8+ T cells specific to the mouse epitope RF9. These CD8+ T cells were measured as a percentage of all immune cells (CD45, CD3 and CD8) present in the tumor. Antigen specific T cells infiltrating into the tumor were measured using RF9 specific dextramers by flow cytometry. […] Data represents mean±SEM of 4-5 mice in each group.
On Day 19 flow cytometry was used to study the immuno-suppressive tumor microenvironment, specifically the regulatory T cell population. T regulatory cells (CD45+CD3+CD4+CD25+Foxp3+) cells infiltrated into tumors on day 14 and day 19.
Of critical importance to the clinical efficacy of any immunotherapy is the ratio of immune suppressive cells to tumor targeting CD8+ T cells within the tumor microenvironment. A lower ratio of immune suppressor cells to CD8+ T cells promotes improved prognosis for anti-tumor benefit. […] Cationic lipids appear to promote the preferential expansion of the right phenotype of effector T-cells in preference to Tregs.
The various formulations were evaluated for their impact on the established TC-1 tumors in the same study. […] Tumor volumes were measured using calipers. The naïve mice group are tumor bearing mice that remained untreated. The HPV16 E7 peptide used in the vaccine is KF18. […]
In this study, IFN-γ ELISPOT studies were also performed to quantify and understand the “quality” of tumor-specific T-cell generated. […]

popliteal lymph nodes = experiment: Influx of T-cells and total lymphocytes into draining lymph nodes after foot pad injection; format: in vivo, mice
Description: 12 mM R-DOTAP or sucrose as control were injected into the right and eft foot pad respectively of mice and the influx of T-cells and total lymphocytes into the draining lymph nodes were quantified by flow cytometry. In this experiment, 15 hours after vaccination the popliteal lymph nodes were removed and analysis performed. […] Five mice were used per study.

popliteal LN = experiment: Homing of CFSE labeled adoptively transferred spleen cells with or without pertussis toxin; format: in vivo, B6 mice; conditions: 16 h
Text: The primary objective of the current experiment was to utilize 5 mice to perform the study described in Example 7 and to visualize the homing of CFSE labeled adoptively transferred cells. The study included a population of cells that had been treated in vitro with pertussis toxin to inactivate chemokine receptors. Pertussis toxin and untreated cells were labeled with two different concentrations of CFSE so that they could be distinguished by flow cytometry. The lymphocytes should be induced to home to lymph nodes.
Spleen cells were prepared from a single B6 mouse and divided in half. Half of the cells were treated with Pertussis toxin 100 ng/ml for 1 hour at 37° C. and washed. The two cell populations were then labeled with CFSE at two different concentrations so they could be distinguished by flow cytometry, and mixed together. The mix (10^7 cells) was injected i.v. into the tail vein of 5 B6 mice. The mice were then anesthetized and injected in the footpad with either sucrose (right footpad) or R-DOTAP (left footpad, 50 μl, 600 nmoles).
After 16 h, the mice were sacrificed and the popliteal LN and spleens harvested. The total cells recovered from left and right nodes from each mouse were counted.

For `CCCCCCCC/C=C\CCCCCCCC(=O)OCC(C[N+](C)(C)C)OC(=O)CCCCCCC/C=C\CCCCCCCC` (centres unmarked) [R-DOTAP, 1,2-dioleoyl-3-trimethylammonium propane], the “ability to reduce the population of Tregs in tumors” value (TC-1 tumors) was “statistical significance was not achieved”, the “infiltration of T-cells into the draining lymph node” value (popliteal lymph nodes; 12 mM R-DOTAP in foot pad, 15 hours after vaccination, versus sucrose) was “induced significant infiltration of T-cells into the lymph node” and the “lymphocyte infiltration into the lymph nodes over time” value (popliteal lymph nodes; 5 hours, 16 hours, 3 days and 4 days) was “lymphocyte infiltration into the lymph nodes was seen to increase over the 4-day period”. For the same molecule, the “infiltration of transferred CFSE labeled lymphocytes into lymph node” value (popliteal LN; R-DOTAP footpad 50 μl, 600 nmoles, untreated cells) was “transferred CFSE labeled lymphocytes also infiltrated the lymph node upon R-DOTAP vaccination” and the “infiltration of pertussis toxin treated CFSE labeled cells into lymph node” value (popliteal LN; cells treated with Pertussis toxin 100 ng/ml) was “this did not occur with the pertussis treated cells”.
